Where two headings read alike, the source gives them in different places.
Experiments:
[1] = system: Escherichia coli K-12 MG1655 and evolved isolates; assay type: cell-based; settings: 45 g/L pimelic acid
Experimental: Five colonies from wild-type K-12 MG1655 and 10 individual colonies deriving from each population were inoculated into 300 μL M9+1% glucose in 96 well deepwell plates and incubated in a 300 rpm plate shaker at 37° C. The next day, cells were diluted 10× in M9+1% glucose and 30 μL was transferred into clear-bottomed 96 well half-deepwell plates (with rectangular wells) containing M9+1% glucose and M9+1% glucose+52.78 g/L glutaric acid or 55.56 g/L adipic acid, such that the final concentration of glutaric acid or adipic acid was 47.5 g/L or 50 g/L, respectively. In addition, cryogenic glycerol stocks of the overnight culture were saved in a 96 well plate format. Half deepwell plates were incubated at 37° C. with 225 rpm shaking in a Growth Profiler (Enzyscreen), with optical scans of the plates taken at 15 minute intervals. Green pixel values integrated over a 1 mm diameter circular area in each well were converted to OD600 values using a previously determined calibration between OD600 and green pixel values.
Additionally, each evolved isolate was tested for cross-tolerance toward other dicarboxylic acids of interest. […] All diacids tested were either the neutral sodium salts, or the free diacid was neutralized with sodium hydroxide to pH 7.0 for testing.

[2] = system: Escherichia coli K-12 MG1655; assay: Screening for tolerance in wild-type cells: growth in varying concentrations of neutralized diacid, Biolector; assay type: cell-based; settings: for tlag (lag time), mean / μ (growth rate), mean: neutralized with sodium hydroxide
Experimental: Escherichia coli K-12 MG1655 was grown overnight in M9 minimal medium+1% glucose and subcultured the following morning to an initial OD600 of 0.05 in M9+1% glucose. Cells were grown to mid-exponential phase (OD600 0.7-1.0) and were back-diluted with fresh medium to an OD600 of 0.7. The diluted cells were used to inoculate M9+1% glucose containing varying concentrations of glutaric acid or adipic acid which were neutralized to pH 7.0 with sodium hydroxide, and growth was measured in FlowerPlates in a Biolector microbioreactor system (m2p-labs) at 37° C. with 1000 rpm shaking. The culture volume in each well was 1.4 mL.

For `O=C(O)CCCCCC(=O)O` [pimelic acid], the “growth rate μ (mean)” value ([1]; strain ADIP1-1) was 0.432 h⁻¹, the “lag time tlag (mean)” value ([1]; strain ADIP1-1) was 9.6 h and the “growth rate μ (mean)” value ([1]; strain ADIP1-9) was 0.421 h⁻¹. The “lag time tlag (mean)” value ([1]; strain ADIP1-9) was 8.8 h, the “growth rate μ (mean)” value ([1]; strain ADIP2-5) was 0.474 h⁻¹ and the “lag time tlag (mean)” value ([1]; strain ADIP2-5) was 11.0 h. For the same compound, the “growth rate μ (mean)” value ([1]; strain ADIP2-6) was 0.480 h⁻¹, the “lag time tlag (mean)” value ([1]; strain ADIP2-6) was 10.6 h and the “growth rate μ (mean)” value ([1]; strain ADIP2-10) was 0.479 h⁻¹. The “lag time tlag (mean)” value ([1]; strain ADIP2-10) was 10.8 h, the “growth rate μ (mean)” value ([1]; strain ADIP3-2) was 0.438 h⁻¹ and the “lag time tlag (mean)” value ([1]; strain ADIP3-2) was 8.4 h. The “growth rate μ (mean)” value ([1]; strain ADIP3-4) was 0.435 h⁻¹, the “lag time tlag (mean)” value ([1]; strain ADIP3-4) was 8.5 h and the “growth rate μ (mean)” value ([1]; strain ADIP3-8) was 0.426 h⁻¹. The “lag time tlag (mean)” value ([1]; strain ADIP3-8) was 9.1 h, the “growth rate μ (mean)” value ([1]; strain ADIP4-1) was 0.348 h⁻¹ and the “lag time tlag (mean)” value ([1]; strain ADIP4-1) was 9.9 h. The “growth rate μ (mean)” value ([1]; strain ADIP4-8) was 0.349 h⁻¹, the “lag time tlag (mean)” value ([1]; strain ADIP4-8) was 10.3 h and the “growth rate μ (mean)” value ([1]; strain ADIP5-2) was 0.385 h⁻¹. The “lag time tlag (mean)” value ([1]; strain ADIP5-2) was 8.7 h, the “growth rate μ (mean)” value ([1]; strain ADIP5-6) was 0.483 h⁻¹ and the “lag time tlag (mean)” value ([1]; strain ADIP5-6) was 8.5 h. The “growth rate μ (mean)” value ([1]; strain ADIP6-3) was 0.346 h⁻¹, the “lag time tlag (mean)” value ([1]; strain ADIP6-3) was 10.4 h and the “growth rate μ (mean)” value ([1]; strain ADIP6-9) was 0.278 h⁻¹. The “lag time tlag (mean)” value ([1]; strain ADIP6-9) was 11.1 h, the “growth rate μ (mean)” value ([1]; strain ADIP6-10) was 0.360 h⁻¹ and the “lag time tlag (mean)” value ([1]; strain ADIP6-10) was 9.7 h. The “growth rate μ (mean)” value ([1]; strain ADIP7-2) was 0.393 h⁻¹, the “lag time tlag (mean)” value ([1]; strain ADIP7-2) was 9.0 h and the “growth rate μ (mean)” value ([1]; strain ADIP7-5) was 0.376 h⁻¹. For the same compound, the “lag time tlag (mean)” value ([1]; strain ADIP7-5) was 9.4 h, the “growth rate μ (mean)” value ([1]; strain ADIP8-3) was 0.235 h⁻¹ and the “lag time tlag (mean)” value ([1]; strain ADIP8-3) was 12.8 h. The “growth rate μ (mean)” value ([1]; strain ADIP8-7) was 0.268 h⁻¹, the “lag time tlag (mean)” value ([1]; strain ADIP8-7) was 12.8 h and the “growth rate μ (mean)” value ([1]; strain ADIP8-10) was 0.249 h⁻¹. The “lag time tlag (mean)” value ([1]; strain ADIP8-10) was 12.8 h, the “growth rate μ (mean)” value ([1]; strain GLUT1-3) was 0.369 h⁻¹ and the “lag time tlag (mean)” value ([1]; strain GLUT1-3) was 10.4 h. For the same compound, the “growth rate μ (mean)” value ([1]; strain GLUT1-9) was 0.337 h⁻¹, the “lag time tlag (mean)” value ([1]; strain GLUT1-9) was 11.9 h and the “growth rate μ (mean)” value ([1]; strain GLUT1-10) was 0.399 h⁻¹. The “lag time tlag (mean)” value ([1]; strain GLUT1-10) was 13.1 h, the “growth rate μ (mean)” value ([1]; strain GLUT2-1) was 0.362 h⁻¹ and the “lag time tlag (mean)” value ([1]; strain GLUT2-1) was 11.6 h. For the same compound, the “growth rate μ (mean)” value ([1]; strain GLUT2-9) was 0.349 h⁻¹, the “lag time tlag (mean)” value ([1]; strain GLUT2-9) was 10.3 h and the “growth rate μ (mean)” value ([1]; strain GLUT2-10) was 0.383 h⁻¹. For the same compound, the “lag time tlag (mean)” value ([1]; strain GLUT2-10) was 10.2 h, the “growth rate μ (mean)” value ([1]; strain GLUT3-5) was 0.280 h⁻¹ and the “lag time tlag (mean)” value ([1]; strain GLUT3-5) was 17.6 h. For the same compound, the “growth rate μ (mean)” value ([1]; strain GLUT3-7) was 0.360 h⁻¹, the “lag time tlag (mean)” value ([1]; strain GLUT3-7) was 11.5 h and the “growth rate μ (mean)” value ([1]; strain GLUT3-9) was 0.351 h⁻¹. The “lag time tlag (mean)” value ([1]; strain GLUT3-9) was 15.7 h, the “growth rate μ (mean)” value ([1]; strain GLUT4-1) was 0.378 h⁻¹ and the “lag time tlag (mean)” value ([1]; strain GLUT4-1) was 12.8 h. For the same compound, the “growth rate μ (mean)” value ([1]; strain GLUT4-4) was 0.388 h⁻¹, the “lag time tlag (mean)” value ([1]; strain GLUT4-4) was 13.2 h and the “growth rate μ (mean)” value ([1]; strain GLUT4-10) was 0.371 h⁻¹. The “lag time tlag (mean)” value ([1]; strain GLUT4-10) was 11.5 h, the “growth rate μ (mean)” value ([1]; strain GLUT5-4) was 0.433 h⁻¹ and the “lag time tlag (mean)” value ([1]; strain GLUT5-4) was 12.1 h. For the same compound, the “growth rate μ (mean)” value ([1]; strain GLUT5-5) was 0.420 h⁻¹, the “lag time tlag (mean)” value ([1]; strain GLUT5-5) was 12.8 h and the “growth rate μ (mean)” value ([1]; strain GLUT5-9) was 0.428 h⁻¹. For the same compound, the “lag time tlag (mean)” value ([1]; strain GLUT5-9) was 13.0 h, the “growth rate μ (mean)” value ([1]; strain GLUT6-4) was 0.356 h⁻¹ and the “lag time tlag (mean)” value ([1]; strain GLUT6-4) was 11.7 h. For the same compound, the “growth rate μ (mean)” value ([1]; strain GLUT6-5) was 0.348 h⁻¹, the “lag time tlag (mean)” value ([1]; strain GLUT6-5) was 11.3 h and the “growth rate μ (mean)” value ([1]; strain GLUT6-10) was 0.353 h⁻¹. The “lag time tlag (mean)” value ([1]; strain GLUT6-10) was 12.1 h, the “growth rate μ (mean)” value ([1]; strain GLUT7-2) was 0.349 h⁻¹ and the “lag time tlag (mean)” value ([1]; strain GLUT7-2) was 11.6 h. The “growth rate μ (mean)” value ([1]; strain GLUT7-6) was 0.357 h⁻¹, the “lag time tlag (mean)” value ([1]; strain GLUT7-6) was 14.8 h and the “growth rate μ (mean)” value ([1]; strain GLUT7-7) was 0.335 h⁻¹. The “lag time tlag (mean)” value ([1]; strain GLUT7-7) was 14.1 h, the “growth rate μ (mean)” value ([1]; strain GLUT8-5) was 0.349 h⁻¹ and the “lag time tlag (mean)” value ([1]; strain GLUT8-5) was 11.8 h. The “growth rate μ (mean)” value ([1]; strain GLUT8-6) was 0.184 h⁻¹, the “lag time tlag (mean)” value ([1]; strain GLUT8-6) was 20.9 h and the “growth rate μ (mean)” value ([1]; strain GLUT8-9) was 0.259 h⁻¹. For the same compound, the “lag time tlag (mean)” value ([1]; strain GLUT8-9) was 11.2 h, the “growth rate μ (mean)” value ([1]; strain MG1655 (Table 28)) was 0.275 h⁻¹ and the “lag time tlag (mean)” value ([1]; strain MG1655 (Table 28)) was 13.4 h. For the same compound, the “growth rate μ (mean)” value ([1]; strain MG1655 (Table 29)) was 0.271 h⁻¹, the “lag time tlag (mean)” value ([1]; strain MG1655 (Table 29)) was 12.4 h and the “tlag (lag time), mean” value ([2]; 10 g/L) was 1.9 h. The “μ (growth rate), mean” value ([2]; 10 g/L, M9+1% glucose, 37° C) was 0.694 h⁻¹, the “tlag (lag time), mean” value ([2]; 20 g/L) was 2.4 h and the “μ (growth rate), mean” value ([2]; 20 g/L) was 0.656 h⁻¹. The “tlag (lag time), mean” value ([2]; 25 g/L) was 2.5 h, the “μ (growth rate), mean” value ([2]; 25 g/L) was 0.572 h⁻¹ and the “tlag (lag time), mean” value ([2]; 30 g/L) was 3.3 h. The “μ (growth rate), mean” value ([2]; 30 g/L) was 0.560 h⁻¹, the “tlag (lag time), mean” value ([2]; 35 g/L) was 4.1 h and the “μ (growth rate), mean” value ([2]; 35 g/L) was 0.534 h⁻¹. For the same compound, the “tlag (lag time), mean” value ([2]; 40 g/L) was 4.3 h, the “μ (growth rate), mean” value ([2]; 40 g/L) was 0.439 h⁻¹ and the “tlag (lag time), mean” value ([2]; 45 g/L) was 4.6 h. For the same compound, the “μ (growth rate), mean” value ([2]; 45 g/L) was 0.280 h⁻¹ and the “growth of K-12 MG1655” value ([2]; at 45 g/L) was “Robust growth was still observed”.

Reference: patent US20230139445A1, “BACTERIAL CELLS WITH IMPROVED TOLERANCE TO DIACIDS” (priority 2016, published 2023)
